Test results reported in patent publication US9469632B2, “6-substituted-3H-1,3-benzothiazol-2-one compounds as TARP-gamma 8 dependent AMPA receptor antagonists” (Eli Lilly and Company, priority 2014, dated 2016).
“And” between values parts separate entries of the source, which are not always exact repeats. Identical values can stand only once.

How the values were obtained:
formalin induced pain = assay: Manual formalin induced pain model; format: in vivo; conditions: mice, p.o.
Experimental: The manual formalin induced pain model is well known for screening compounds for analgesic properties (Mogil J. S. et al., Heritability of nociception I: Responses of 11 inbred mouse strains on 12 measures of nociception. Pain 80 (1999) 67-82). The assay is performed in Plexiglas® boxes approx. 10 cm×10 cm×10 cm in size. A minor placed at the back of the cage allows the unhindered observation of the formalin injected paw. Non-fasted male mice (Harlan (HSD) CD1-Icr) are placed individually in the cubicles at least 60 min. prior to the experiment. All testing is conducted between 08:00 and 16:00 hr. and the testing room temperature is maintained at 21-23° C. […] Formalin (20 uL of a 5% solution in 0.9% saline) is injected subcutaneously into the plantar surface of the left hind paw with a 27 gauge needle. Observation starts immediately after the formalin injection. Formalin induced pain is quantified by recording the number of seconds each licking event lasts in 5 min intervals. The pain scoring is measured for 60 min. after the formalin injection. Two phases of pain behavior are observed as previously described (Wheeler-Aceto, H., Porreca, F. and Cowan, A., The rat paw formalin test: comparison of noxious agents, Pain 40 (1990) 229-238). The early phase starts immediately after the formalin injection and lasts approximately 5 min., followed by the late phase that starts between minutes 10-15 with a maximum response typically observed around 25-40 min after the formalin injection. After the 60 min. observation period, animals are sacrificed with CO2 followed by cervical dislocation. Of the different scoring parameters reported for the formalin test, the total time spent licking and biting the injected paw is considered to be most relevant. (Abbott et al., The formalin test: scoring properties of the first and second phases of the pain response in rats, Pain 60 (1995) 91-102; Coderre et al., The formalin test: a validation of the weighted-scores method of the behavioral pain rating, Pain 54 (1993) 43-50).) The early phase score is the sum of time spent licking (seconds) from time 0 to 5 min. The late phase score is obtained by adding the total number of seconds spent licking from minute 15 to min 55 of the observation period. Data are presented as means with standard errors of means (±SEM). Data are evaluated by one-way analysis of variance (ANOVA) and the appropriate contrasts analyzed by Dunnett “t” test for two sided comparisons. Differences are considered to be significant if the P-value is less than 0.05. (Abbott, supra.; Coderre, supra.; and Wheeler-Aceto, supra.)

[1] = molecular target: T1, GluA1 flip isoform devoid of TARP (Homo sapiens, UniProt P42261); assay: FLIPR antagonist functional assay, GluA1 flip expressed without TARP in CHO-S cells; format: cell-based; conditions: glutamate 45 μM plus CTZ 20 μM, assay limit of 9260 nM
T1 construct: expressed in transfected cells; host or cells: CHO-S (Invitrogen), transient transfection
Experimental: (§1) Briefly, CHO-S (Invitrogen) cells are grown in suspension in 50/50 custom media to a density of 1×10^7 cells/ml. (50/50 custom media is a low calcium media made as a 1:1 (v/v) mixture of CD CHO media (Gibco #10743) and a custom complete media. The custom complete media is made by adding 0.40 mg/L tropolone, 5.00 mg/L insulin, 20 mM HEPES, and 0.075% Pluronic® F68 to a custom basal media having the following formula: (values as mg/L unless otherwise specified) 11.01 anhydrous calcium chloride, 0.050 ferric nitrate-9H2O, 0.420 ferrous sulfate-7H2O, 28.64 anhydrous magnesium chloride, 48.84 anhydrous magnesium sulfate, 312.14 KCl, 5505.96 NaCl, 62.57 monobasic sodium phosphate, 71.28 anhydrous dibasic sodium phosphate, 0.432 zinc sulfate-7H2O, 10.0 ethanolamine HCl, 6000 D-glucose (dextrose), 0.210 DL lipoic acid thioctic, 0.081 putrescine 2 HCl, 4.78 sodium hypoxanthine, 220.24 sodium pyruvate, 0.730 thymidine, 8.90 L-alanine, 211.23 L-arginine HCl, 15.02 L-asparagine H2O, 13.31 L-aspartic acid, 62.67 cystine 2 HCl, 7.360 L-glutamic acid, 146.16 L-Glutamine, 30.0 gylicine, 42.04 L-histidine HCl 2 H2O, 105.11 L-isoluecine, 105.11 L-luecine, 146.16 L-lysine HCl, 30.03 L-methionine, 66.07 L-phenylalanine, 17.27 L-proline, 42.04 L-serine, 95.1 L-threonine, 16.02 L-typtophan, 104.11 L-tyrosine disodium salt, 94.1 L-valine, 8.99 choline chloride, 4.00 folic acid, 12.61 I inositol, 4.00 niacinamide, 4.00 pyridoxal HCl, 0.031 pyridoxine HCl, 0.400 riboflavin, 4.00 sodium pantothenate, 4.00 thiamine HCl, 0.680 vitamin B 12, and 2200 sodium bicarbonate.) Cells are centrifuged at 1000×g for […] and resuspended in fresh 50/50 custom media at 2×10^6 cells/ml. For batch transfection, 2 mg of total DNA(s) is used for each liter of cells. For GluA1-γ8 transfection of CHO-S cells, human GluA1 Qflop-Cacng8-pBudCE4.1 DNA (Qiagen) and human EAAT3 pAN104 DNA (Qiagen, a […]) are mixed in a ratio of 2:3. For GluA1-γ2 transfection of CHO-S cells, human GluA1 Qflop-Cacng2-pBudCE4.1 (Qiagen) is used. For GluA1 flip transfection of CHO-S cells, human GluA1 flip pcDNA3.1 DNA (Qiagen) is used. DNA(s) and FreeStyle™ MAX Reagent (Invitrogen cat#16447-500) are added to basal custom media (see above) in the proportions of 10 μg total DNA: 10 plFreeStyleTm MAX Reagent: 1 ml media, to form a DNA complex. […]
(§2) Frozen transfected CHO-S cells expressing AMPA receptors are thawed and plated in Dulbecco's Modified Eagle Media (DMEM media) (Gibco, cat#11960) containing 5% dialyzed Fetal Bovine Serum (Gibco, cat#26400-036) and 20 mM HEPES at 50,000 cells per well in 384-well Poly-D-lysine coated plates (Becton Dickinson, cat#354663) and cultured overnight at 37° C. On the day of an experiment, two fluorescence dye loading buffers are prepared. […]

[2] = molecular target: T2, TARP γ2 dependent GluA1 flop receptors (Homo sapiens, UniProt P42261+Q9Y698); assay: FLIPR antagonist functional assay, GluA1 flop co-expressed with TARP γ2 in CHO-S cells; format: cell-based; conditions: glutamate 45 μM plus CTZ 20 μM, assay limit of 9260 nM
T2 construct: expressed in transfected cells; host or cells: CHO-S (Invitrogen), transient transfection
Experimental: as §1, §2

[3] = molecular target: T3, TARP γ8 dependent GluA1 flop receptors (Homo sapiens, UniProt P42261+Q8WXS5); assay: FLIPR antagonist functional assay, GluA1 flop co-expressed with TARP γ8 in CHO-S cells; format: cell-based; conditions: glutamate 45 μM plus CTZ 20 μM, read-out: relative IC50, inhibition of glutamate plus CTZ activation of TARP γ8 dependent GluA1 flop receptors
T3 construct: expressed in transfected cells; host or cells: CHO-S (Invitrogen), transient transfection
Experimental: as §1, §2

T1 sequence (P42261 19-906 isoform P42261-2 limits assumed): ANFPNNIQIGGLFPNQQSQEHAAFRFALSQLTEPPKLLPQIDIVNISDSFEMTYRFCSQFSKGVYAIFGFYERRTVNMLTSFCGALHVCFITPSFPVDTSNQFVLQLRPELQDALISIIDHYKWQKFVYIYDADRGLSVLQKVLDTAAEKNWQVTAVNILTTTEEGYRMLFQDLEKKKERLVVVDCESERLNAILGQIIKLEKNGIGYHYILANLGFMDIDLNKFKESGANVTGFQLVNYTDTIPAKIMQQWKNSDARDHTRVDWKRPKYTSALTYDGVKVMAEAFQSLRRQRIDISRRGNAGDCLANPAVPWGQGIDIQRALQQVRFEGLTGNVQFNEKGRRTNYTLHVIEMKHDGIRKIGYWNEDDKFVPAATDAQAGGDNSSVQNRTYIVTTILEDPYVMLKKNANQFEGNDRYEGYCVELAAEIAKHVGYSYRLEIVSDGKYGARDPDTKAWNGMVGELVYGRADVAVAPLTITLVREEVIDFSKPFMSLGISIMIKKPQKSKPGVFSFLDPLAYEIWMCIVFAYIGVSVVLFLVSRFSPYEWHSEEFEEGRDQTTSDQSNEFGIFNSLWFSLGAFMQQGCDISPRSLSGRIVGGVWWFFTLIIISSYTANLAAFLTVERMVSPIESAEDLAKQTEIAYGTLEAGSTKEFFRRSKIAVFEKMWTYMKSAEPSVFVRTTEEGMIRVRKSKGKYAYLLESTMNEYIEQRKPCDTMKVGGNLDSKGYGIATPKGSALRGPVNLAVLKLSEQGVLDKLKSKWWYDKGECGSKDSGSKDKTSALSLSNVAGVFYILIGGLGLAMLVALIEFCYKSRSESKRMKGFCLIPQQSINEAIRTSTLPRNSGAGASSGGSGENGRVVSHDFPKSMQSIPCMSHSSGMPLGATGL
T2 sequence (P42261 19-906): as the sequence (P42261 19-906 isoform P42261-2 limits assumed) above, with G740N, S750N, V754L, S760N, K772G, D773G, S774G, G775D counted along it
T2 sequence (Q9Y698 whole entry): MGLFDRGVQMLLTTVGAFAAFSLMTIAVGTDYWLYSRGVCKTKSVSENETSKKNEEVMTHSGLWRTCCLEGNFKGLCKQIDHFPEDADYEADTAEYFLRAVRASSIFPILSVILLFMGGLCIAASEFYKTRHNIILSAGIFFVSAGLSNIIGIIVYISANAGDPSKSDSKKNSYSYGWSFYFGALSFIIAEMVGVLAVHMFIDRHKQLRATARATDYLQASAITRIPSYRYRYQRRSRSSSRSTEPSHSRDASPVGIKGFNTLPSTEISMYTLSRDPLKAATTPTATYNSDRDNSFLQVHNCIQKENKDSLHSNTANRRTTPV
T3 sequence (P42261 19-906): as the sequence (P42261 19-906 isoform P42261-2 limits assumed) above, with G740N, S750N, V754L, S760N, K772G, D773G, S774G, G775D counted along it
T3 sequence (Q8WXS5 whole entry): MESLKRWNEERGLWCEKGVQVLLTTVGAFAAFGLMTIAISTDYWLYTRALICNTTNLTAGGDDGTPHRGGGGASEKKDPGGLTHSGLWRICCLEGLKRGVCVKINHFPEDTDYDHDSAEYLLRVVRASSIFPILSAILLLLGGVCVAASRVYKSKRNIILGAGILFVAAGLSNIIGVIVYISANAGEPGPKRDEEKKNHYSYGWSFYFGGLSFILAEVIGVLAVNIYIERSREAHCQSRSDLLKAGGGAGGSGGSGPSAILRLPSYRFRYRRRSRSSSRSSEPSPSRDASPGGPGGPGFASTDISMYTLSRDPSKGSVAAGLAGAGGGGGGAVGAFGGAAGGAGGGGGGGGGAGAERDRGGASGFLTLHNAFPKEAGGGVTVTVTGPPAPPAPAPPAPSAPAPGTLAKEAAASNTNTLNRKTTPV

Compound: CC(O)COCc1ccc(-n2ccc(C(C)c3ccc4[nH]c(=O)sc4c3)n2)nc1 (single isomer, unassigned) [Example 55, 6-[1-[1-[5-(2-hydroxypropoxymethyl)-2-pyridyl]pyrazol-3-yl]ethyl]-3H-1,3-benzothiazol-2-one]
- Percent reversal of Late Phase Licking (formalin induced pain; 3 mg/Kg): 25.64%
- Percent reversal of Late Phase Licking (formalin induced pain; 10 mg/Kg): 31.08%
- Percent reversal of Late Phase Licking (formalin induced pain; 30 mg/Kg): 63.47%

Compound: C[C@@H](c1ccc2[nH]c(=O)sc2c1)c1ccn(-c2ccc(CCO)cn2)n1 (single isomer, unassigned) [Example 27]
- IC50 [1]: > 9.26 µM
- IC50 [2]: > 9.26 µM
- IC50 [3]: 0.0616 ± 0.0235 µM
- Percent reversal of Late Phase Licking (formalin induced pain; 10 mg/Kg): 24.27%
- Percent reversal of Late Phase Licking (formalin induced pain; 30 mg/Kg): 57.15%
- Percent reversal of Late Phase Licking (formalin induced pain; 60 mg/Kg): 62.14%

Compound: CC(=O)c1ccc(-c2csc(C(C)c3ccc4[nH]c(=O)sc4c3)n2)nc1 (single isomer, unassigned) [Example 54, 6-[1-[4-(5-acetyl-2-pyridyl)thiazol-2-yl]ethyl]-3H-1,3-benzothiazol-2-one]
- IC50 [1]: > 9.26 µM
- IC50 [2]: > 9.26 µM
- IC50 [3]: 0.0826 ± 0.0562 µM

Compound: CC(c1ccc2[nH]c(=O)sc2c1)c1ccn(-c2ccc(N3CCC(O)CC3)cn2)n1 (single isomer, unassigned) [Example 3, 6-(1-(1-(5-(4-hydroxypiperidin-1-yl)pyridin-2-yl)-1H-pyrazol-3-yl)ethyl)benzo[d]thiazol-2(3H)-one]
- IC50 [1]: > 9.26 µM
- IC50 [2]: > 9.26 µM
- IC50 [3]: 0.0911 ± 0.0481 µM
- Percent reversal of Late Phase Licking (formalin induced pain; 1 mg/Kg): 32.3%
- Percent reversal of Late Phase Licking (formalin induced pain; 3 mg/Kg): 43.8%
- Percent reversal of Late Phase Licking (formalin induced pain; 10 mg/Kg): 66.2%

Compound: COc1cccc(C2(O)CCCCC2CN(C)C)c1 (centres unmarked) [Tramadol, tramadol, reference compound]
- Percent reversal of Late Phase Licking (formalin induced pain; positive control 80 mg/Kg Tramadol, one value per experiment (Examples 3, 27, 30, 55)): 94.7% and 86.97% and 57.96% and 81.84%

Compound: CC(c1ccc2[nH]c(=O)sc2c1)c1csc(-c2ccccn2)n1 (single isomer, unassigned) [Example 53, 6-[1-(2-pyridin-2-yl-thiazol-4-yl)-ethyl]-3H-benzothiazol-2-one]
- IC50 [1]: > 9.26 µM
- IC50 [2]: > 9.26 µM
- IC50 [3]: 0.0656 ± 0.0149 µM

Compound: CC(c1ccc2[nH]c(=O)sc2c1)c1ccn(-c2ccc(CCC(C)(C)O)cn2)n1 (single isomer, unassigned) [Example 30]
- Percent reversal of Late Phase Licking (formalin induced pain; 3 mg/Kg): 8.88%
- Percent reversal of Late Phase Licking (formalin induced pain; 10 mg/Kg): 11.77%
- Percent reversal of Late Phase Licking (formalin induced pain; 30 mg/Kg): 47.77%
- Percent reversal of Late Phase Licking (formalin induced pain; 60 mg/Kg): 62.14%
